Data as given in patent US20110306606A1, “NOVEL 2,6-SUBSTITUTED-3-NITROPYRIDINE DERIVATIVE, METHOD FOR PREPARING SAME, AND PHARMACEUTICAL COMPOSITION INCLUDING SAME” (priority 2008, published 2011).

Tested on: Osteoblasts (Calvarial cells)
Settings: ICR, mouse, 72 h, 1 μM
Procedure: For the preparation of osteoblasts (Calvarial cells), the calvaria were aseptically dissected from 1 to 2-day-old neonatal ICR mice and subjected to continuous reaction with a 0.2% collagenase solution to separate osteoblasts. The cell-suspended supernatant was centrifuged to recover osteoblasts which were grown to full confluence in an α-MEM supplemented with 10% FBS and then diluted to a desired cell density for use in the experiment.
Cytotoxicity of the compounds of the present invention was evaluated by carrying out the experiment described below.
The vehicle control group was established to contain 0.2% DMSO. 100 μL/well of the diluted drugs were dispensed into 96-well plates to which osteoblasts (calvarial cells) prepared in Experimental Example 1 were then added at a density of 1.0×10^4 cells/100 μL/well. Here, the final compound concentration in the cell culture was 1 μM, and the vehicle control group contained 0.1% DMSO. The cells were cultured in a 5% CO2 inhibitor at 37° for 72 hours. 25 μL of 3-(4,5-dimethyl-2-thiazolyl)-2,5-diphenyl-2H-tetrazolium bromide (MTT) dissolved in PBS (2 mg/mL) was added to each cell culture 4 hours before the end of culture. After completion of the reaction, the plates were centrifuged, the media were discarded, and 100 μL of formazan was added and dissolved in dimethyl sulfoxide (DMSO). Finally, the absorbance of the developed plates was measured at 540 nm. The cell viability was expressed as % concentration in comparison with the vehicle control group.

SMILES	Cell viability (%) Calvarial cell [%]
CC(C)CNc1ccc([N+](=O)[O-])c(Nc2cccc(N)c2)n1 [Compound 72, 2-[3-(amino)phenylamino]-6-(isobutylamino)-3-nitropyridine]	106
CC(C)(C)Nc1ccc([N+](=O)[O-])c(Nc2cccc(N)c2)n1 [Compound 73, 2-[3-(amino)phenylamino]-6-(t-butylamino)-3-nitropyridine]	102
Nc1cccc(Nc2nc(N3CCC(O)CC3)ccc2[N+](=O)[O-])c1 [Compound 74, 2-[3-(amino)phenylamino]-6-(4-hydroxypiperidino)-3-nitropyridine]	93
CC(C)c1nccn1-c1ccc([N+](=O)[O-])c(Nc2cccc(N)c2)n1 [Compound 75, 2-[3-(amino)phenylamino]-6-[(2-isopropyl)imidazol-1-yl]-3-nitropyridine]	103
Nc1cccc(Nc2nc(N3CCNCC3)ccc2[N+](=O)[O-])c1 [Compound 76, 2-[3-(amino)phenylamino]-6-(piperazin-1-yl)-3-nitropyridine]	102
CN1CCN(c2ccc([N+](=O)[O-])c(Nc3cccc(N)c3)n2)CC1 [Compound 77, 2-[3-(amino)phenylamino]-6-(4-methylpiperazin-1-yl)-3-nitropyridine]	100
Nc1cccc(Nc2nc(N3CCOCC3)ccc2[N+](=O)[O-])c1 [Compound 78, 2-[3-(amino)phenylamino]-6-morpholino-3-nitropyridine]	93
Nc1cccc(Nc2nc(NCCCn3ccnc3)ccc2[N+](=O)[O-])c1 [Compound 82, 2-[3-(amino)phenylamino]-6-[(3-imidazol-1-yl)propylamino]-3-nitropyridine]	106
Cc1nccn1-c1ccc([N+](=O)[O-])c(Nc2cccc(N)c2)n1 [Compound 85, 2-[3-(amino)phenylamino]-6-[(2-methyl)imidazol-1-yl]-3-nitropyridine]	101
CC(C)CNc1ccc([N+](=O)[O-])c(Nc2ccc(-n3ccnc3)cc2)n1 [Compound 88, 2-[4-(imidazol-1-yl)phenylamino]-6-(isobutylamino)-3-nitropyridine]	96
CC(=O)c1cccc(Nc2nc(NCC(C)C)ccc2[N+](=O)[O-])c1 [Compound 98, 2-(3-acetylphenylamino)-6-(isobutylamino)-3-nitropyridine]	92
CC(C)Nc1ccc([N+](=O)[O-])c(Nc2ccc(N3CCOCC3)cc2)n1 [Compound 109, 2-(4-morpholinophenylamino)-6-(isopropylamino)-3-nitropyridine]	101
CC(C)c1nccn1-c1ccc([N+](=O)[O-])c(Nc2ccc(N3CCOCC3)cc2)n1 [Compound 114, 2-(4-morpholinophenylamino)-6-[(2-isopropyl)imidazol-1-yl]-3-nitropyridine]	92
O=[N+]([O-])c1ccc(NCc2ccncc2)nc1Nc1ccc(N2CCOCC2)cc1 [Compound 116, 2-(4-morpholinophenylamino)-6-[(4-pyridyl)methylamino]-3-nitropyridine]	89
CC(C)(C)Nc1ccc([N+](=O)[O-])c(Nc2ccc(N3CCOCC3)cc2)n1 [Compound 117, 2-(4-morpholinophenylamino)-6-(t-butylamino)-3-nitropyridine]	90
CNc1ccc([N+](=O)[O-])c(Nc2ccc(F)c(F)c2)n1 [Compound 122, 2-[(3,4-difluoro)phenylamino]-6-(methylamino)-3-nitropyridine]	121
CC(C)Nc1ccc([N+](=O)[O-])c(Nc2ccc(F)c(F)c2)n1 [Compound 123, 2-[(3,4-difluoro)phenylamino]-6-(isopropylamino)-3-nitropyridine]	112
CC(C)CNc1ccc([N+](=O)[O-])c(Nc2ccc(F)c(F)c2)n1 [Compound 124, 2-[(3,4-difluoro)phenylamino]-6-(isobutylamino)-3-nitropyridine]	106
O=[N+]([O-])c1ccc(N2CCC(O)CC2)nc1Nc1ccc(F)c(F)c1 [Compound 126, 2-[(3,4-difluoro)phenylamino]-6-(4-hydroxypiperidino)-3-nitropyridine]	95
CN1CCN(c2ccc([N+](=O)[O-])c(Nc3ccc(F)c(F)c3)n2)CC1 [Compound 128, 2-[(3,4-difluoro)phenylamino]-6-(4-methylpiperazin-1-yl)-3-nitropyridine]	87
O=[N+]([O-])c1ccc(N2CCOCC2)nc1Nc1ccc(F)c(F)c1 [Compound 129, 2-[(3,4-difluoro)phenylamino]-6-morpholino-3-nitropyridine]	88
NC1CCN(c2ccc([N+](=O)[O-])c(Nc3ccc(F)c(F)c3)n2)CC1 [Compound 130, 2-[(3,4-difluoro)phenylamino]-6-(4-aminopiperidino)-3-nitropyridine]	101
O=[N+]([O-])c1ccc(NCc2ccncc2)nc1Nc1ccc(F)c(F)c1 [Compound 131, 2-[(3,4-difluoro)phenylamino]-6-[(4-pyridyl)methylamino]-3-nitropyridine]	100
O=[N+]([O-])c1ccc(N2CCC(O)CC2)nc1Nc1ccc(-c2csc(C3CCCCC3)n2)cc1 [Compound 155, 2-[4-(2-cyclohexylthiazol-4-yl)phenylamino]-6-(4-hydroxypiperidino)-3-nitropyridine]	105
CC(C)c1nccn1-c1ccc([N+](=O)[O-])c(Nc2ccc(-c3csc(C4CCCCC4)n3)cc2)n1 [Compound 157, 2-[4-(2-cyclohexylthiazol-4-yl)phenylamino]-6-[(2-isopropyl)imidazol-1-yl]-3-nitropyridine]	115
O=[N+]([O-])c1ccc(N2CCNCC2)nc1Nc1ccc(-c2csc(C3CCCCC3)n2)cc1 [Compound 158, 2-[4-(2-cyclohexylthiazol-4-yl)phenylamino]-6-(piperazin-1-yl)-3-nitropyridine]	88
O=[N+]([O-])c1ccc(N2CCOCC2)nc1Nc1ccc(-c2csc(C3CCCCC3)n2)cc1 [Compound 160, 2-[4-(2-cyclohexylthiazol-4-yl)phenylamino]-6-morpholino-3-nitropyridine]	105
O=[N+]([O-])c1ccc(NCc2cccnc2)nc1Nc1ccc(-c2csc(C3CCCCC3)n2)cc1 [Compound 162, 2-[4-(2-cyclohexylthiazol-4-yl)phenylamino]-6-[(3-pyridyl)methylamino]-3-nitropyridine]	67
O=[N+]([O-])c1ccc(NCCc2ccccn2)nc1Nc1ccc(-c2csc(C3CCCCC3)n2)cc1 [Compound 164, 2-[4-(2-cyclohexylthiazol-4-yl)phenylamino]-6-[2-(2-pyridyl)ethylamino]-3-nitropyridine]	104
CCCCNc1ccc([N+](=O)[O-])c(Nc2ccc(-c3csc(C4CCCCC4)n3)cc2)n1 [Compound 165, 2-[4-(2-cyclohexylthiazol-4-yl)phenylamino]-6-(n-butylamino)-3-nitropyridine]	102
